The source made the active and inactive calls.
Experiments:
[1] = target: Fructose-bisphosphate aldolase (Mycobacterium tuberculosis, UniProt P9WQA3); test: Fluorescence-based biochemical high throughput dose response assay for inhibitors of the fructose-bisphosphate aldolase (FBA) of M. tuberculosis.; assay type: functional
[2] = target: T1, Carboxy-terminal domain RNA polymerase II polypeptide A small phosphatase 1 (Homo sapiens, UniProt Q9GZU7); test: inhibitors of CTDSP1, concentration-response testing, biochemical assay, absorbance-based, actives from ultra-high-throughput screening (AID 540297); assay type: functional
T1 sequence (Q9GZU7 whole entry): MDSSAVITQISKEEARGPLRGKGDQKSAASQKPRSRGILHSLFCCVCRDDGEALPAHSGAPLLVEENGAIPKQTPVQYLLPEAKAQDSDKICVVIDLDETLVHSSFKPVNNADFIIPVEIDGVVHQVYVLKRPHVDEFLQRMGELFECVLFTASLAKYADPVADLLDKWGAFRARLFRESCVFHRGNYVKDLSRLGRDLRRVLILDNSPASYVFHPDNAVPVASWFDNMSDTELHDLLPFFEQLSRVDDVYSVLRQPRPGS

[3] = target: T2, Voltage-gated N-type calcium channel alpha-1B subunit/Amyloid beta A4 precursor protein-binding family A member 1 (Homo sapiens, UniProt Q00975+Q02410); assay type: protein assay
T2 sequence (Q00975 whole entry): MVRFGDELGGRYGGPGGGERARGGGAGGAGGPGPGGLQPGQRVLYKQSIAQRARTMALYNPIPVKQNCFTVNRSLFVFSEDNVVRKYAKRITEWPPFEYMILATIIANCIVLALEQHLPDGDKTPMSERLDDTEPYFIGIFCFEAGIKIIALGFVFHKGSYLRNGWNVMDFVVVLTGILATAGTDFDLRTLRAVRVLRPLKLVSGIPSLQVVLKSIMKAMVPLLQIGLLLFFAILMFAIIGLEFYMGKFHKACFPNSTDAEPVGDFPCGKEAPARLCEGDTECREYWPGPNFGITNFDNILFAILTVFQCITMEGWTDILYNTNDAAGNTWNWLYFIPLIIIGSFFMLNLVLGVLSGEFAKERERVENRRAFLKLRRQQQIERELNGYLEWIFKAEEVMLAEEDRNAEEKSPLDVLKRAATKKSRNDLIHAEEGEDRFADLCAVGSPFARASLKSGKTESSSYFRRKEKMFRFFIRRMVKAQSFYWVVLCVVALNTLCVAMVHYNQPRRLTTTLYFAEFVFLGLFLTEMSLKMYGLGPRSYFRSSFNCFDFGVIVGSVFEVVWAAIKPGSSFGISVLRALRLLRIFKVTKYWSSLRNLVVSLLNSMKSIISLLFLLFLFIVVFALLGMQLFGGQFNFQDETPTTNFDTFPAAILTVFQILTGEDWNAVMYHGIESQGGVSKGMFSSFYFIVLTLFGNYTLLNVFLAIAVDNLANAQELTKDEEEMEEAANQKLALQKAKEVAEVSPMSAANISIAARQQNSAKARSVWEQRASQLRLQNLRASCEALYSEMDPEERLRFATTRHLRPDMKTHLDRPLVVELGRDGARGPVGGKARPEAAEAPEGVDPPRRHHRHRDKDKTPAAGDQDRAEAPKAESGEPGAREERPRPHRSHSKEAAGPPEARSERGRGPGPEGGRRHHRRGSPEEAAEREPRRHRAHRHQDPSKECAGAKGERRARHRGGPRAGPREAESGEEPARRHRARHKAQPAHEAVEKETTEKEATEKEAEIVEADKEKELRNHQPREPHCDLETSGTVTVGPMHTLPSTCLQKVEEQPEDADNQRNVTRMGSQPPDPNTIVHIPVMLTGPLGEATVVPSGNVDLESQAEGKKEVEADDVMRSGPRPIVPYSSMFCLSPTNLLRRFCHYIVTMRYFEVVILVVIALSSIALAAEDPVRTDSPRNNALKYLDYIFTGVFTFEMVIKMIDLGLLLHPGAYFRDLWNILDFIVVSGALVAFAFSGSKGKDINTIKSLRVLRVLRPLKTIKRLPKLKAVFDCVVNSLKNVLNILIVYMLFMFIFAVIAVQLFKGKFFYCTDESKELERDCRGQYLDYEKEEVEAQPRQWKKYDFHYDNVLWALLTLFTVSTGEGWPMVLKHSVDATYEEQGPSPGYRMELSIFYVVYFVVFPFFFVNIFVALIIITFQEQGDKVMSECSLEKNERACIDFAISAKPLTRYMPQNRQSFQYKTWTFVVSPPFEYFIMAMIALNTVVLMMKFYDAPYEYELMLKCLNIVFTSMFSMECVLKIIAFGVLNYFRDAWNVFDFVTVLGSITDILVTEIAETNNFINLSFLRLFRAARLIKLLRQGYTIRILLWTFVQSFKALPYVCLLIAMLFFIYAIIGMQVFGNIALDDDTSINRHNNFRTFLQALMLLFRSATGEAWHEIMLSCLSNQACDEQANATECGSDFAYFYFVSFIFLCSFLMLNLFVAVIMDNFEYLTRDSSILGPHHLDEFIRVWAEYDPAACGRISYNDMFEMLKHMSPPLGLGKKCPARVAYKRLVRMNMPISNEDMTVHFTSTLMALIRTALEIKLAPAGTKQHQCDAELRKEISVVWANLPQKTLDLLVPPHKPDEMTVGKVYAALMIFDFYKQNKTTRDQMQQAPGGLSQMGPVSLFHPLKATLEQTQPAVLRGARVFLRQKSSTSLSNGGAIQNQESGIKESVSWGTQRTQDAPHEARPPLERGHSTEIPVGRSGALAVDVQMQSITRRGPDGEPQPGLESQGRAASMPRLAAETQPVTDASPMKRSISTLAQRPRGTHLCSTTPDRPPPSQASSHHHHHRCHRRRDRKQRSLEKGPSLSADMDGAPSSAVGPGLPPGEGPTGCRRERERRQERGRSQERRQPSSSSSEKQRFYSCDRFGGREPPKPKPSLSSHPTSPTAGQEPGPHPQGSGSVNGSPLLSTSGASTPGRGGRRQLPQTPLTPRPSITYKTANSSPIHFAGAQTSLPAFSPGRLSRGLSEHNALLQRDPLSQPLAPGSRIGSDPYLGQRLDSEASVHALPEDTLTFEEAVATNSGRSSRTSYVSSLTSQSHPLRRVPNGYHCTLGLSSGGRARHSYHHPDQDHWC
T2 sequence (Q02410 whole entry): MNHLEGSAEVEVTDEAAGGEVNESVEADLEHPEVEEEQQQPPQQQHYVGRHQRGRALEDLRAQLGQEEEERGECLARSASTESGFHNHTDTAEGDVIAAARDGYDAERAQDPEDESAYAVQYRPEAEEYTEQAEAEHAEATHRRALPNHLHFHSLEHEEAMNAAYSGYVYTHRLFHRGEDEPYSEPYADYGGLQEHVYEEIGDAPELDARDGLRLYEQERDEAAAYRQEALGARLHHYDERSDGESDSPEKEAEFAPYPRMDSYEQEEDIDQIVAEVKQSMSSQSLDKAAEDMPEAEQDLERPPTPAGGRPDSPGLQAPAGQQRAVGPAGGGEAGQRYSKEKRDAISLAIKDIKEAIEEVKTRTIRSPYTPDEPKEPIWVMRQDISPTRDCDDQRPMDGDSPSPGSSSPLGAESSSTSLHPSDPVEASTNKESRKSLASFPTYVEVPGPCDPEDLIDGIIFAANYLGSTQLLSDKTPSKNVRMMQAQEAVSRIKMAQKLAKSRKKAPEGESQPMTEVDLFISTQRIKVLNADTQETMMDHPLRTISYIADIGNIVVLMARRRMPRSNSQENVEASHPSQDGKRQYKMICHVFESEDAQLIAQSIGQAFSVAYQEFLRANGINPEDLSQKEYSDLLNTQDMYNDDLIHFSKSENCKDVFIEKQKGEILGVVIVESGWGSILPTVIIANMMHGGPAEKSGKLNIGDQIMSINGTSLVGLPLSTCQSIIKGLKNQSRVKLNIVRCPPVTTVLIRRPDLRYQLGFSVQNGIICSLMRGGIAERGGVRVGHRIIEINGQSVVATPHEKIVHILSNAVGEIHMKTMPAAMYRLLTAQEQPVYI

HEK293 [4] = test: inhibitors of LMP1-driven NF-kB reporter, dose response, cell-based, HEK293, luciferase, cherry-pick (AID 588343); assay type: functional; conditions: Homo sapiens
[5] = target: T2, Voltage-gated N-type calcium channel alpha-1B subunit/Amyloid beta A4 precursor protein-binding family A member 1; assay type: protein assay; remark: listed apart in the source
[6] = target: T3, Low molecular weight phosphotyrosine protein phosphatase (Homo sapiens, UniProt P24666); assay type: functional; conditions: read-out: IC50_Mean
T3 sequence (P24666 whole entry): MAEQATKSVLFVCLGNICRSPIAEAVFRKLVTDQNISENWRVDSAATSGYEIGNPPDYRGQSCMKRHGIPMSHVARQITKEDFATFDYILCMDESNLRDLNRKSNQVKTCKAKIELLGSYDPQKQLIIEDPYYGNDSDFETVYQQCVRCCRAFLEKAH

[7] = target: Photoreceptor-specific nuclear receptor (Homo sapiens, UniProt Q9Y5X4); assay type: functional, cell-based;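 further: CHO-S cells with Gal4-NCOR and VP16-NR2E3 two-hybrid luciferase reporter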
Chain of Photoreceptor-specific nuclear receptor (Q9Y5X4 whole entry, the tested form may be a part): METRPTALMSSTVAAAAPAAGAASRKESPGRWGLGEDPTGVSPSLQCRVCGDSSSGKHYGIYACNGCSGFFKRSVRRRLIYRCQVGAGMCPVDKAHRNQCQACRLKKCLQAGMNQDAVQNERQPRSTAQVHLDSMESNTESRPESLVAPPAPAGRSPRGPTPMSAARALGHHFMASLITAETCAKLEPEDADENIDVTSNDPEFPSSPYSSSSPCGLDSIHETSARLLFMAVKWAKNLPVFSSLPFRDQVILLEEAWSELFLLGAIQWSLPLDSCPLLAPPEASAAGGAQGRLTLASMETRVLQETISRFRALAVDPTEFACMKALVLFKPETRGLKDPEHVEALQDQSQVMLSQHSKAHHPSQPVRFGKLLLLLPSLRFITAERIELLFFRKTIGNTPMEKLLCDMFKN

cells [8] = assay type: functional, cell-based
[9] = C. albicans growth with fluconazole, confirmation, fluorescence, retest (AID 2467); assay type: functional, cell-based
[10] = inhibitors of intracellular T. cruzi replication, confirmation, NIH3T3 host cells, beta-gal luminescence (AID 2044); assay type: functional, cell-based;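 further: intracellular parasites grown in NIH/3T3 mouse fibroblasts as host cells; luminescent beta-galactosidase reporter signal from transgenic T. cruzi replicating inside host cells; inhibitors lower the luminescence signal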
HEK293 [11] = test: cells; conditions: Homo sapiens
HEK293 [12] = test: cells; conditions: Homo sapiens; remark: listed apart in the source
[13] = target: T4, Nuclear receptor subfamily 0 group B member 1 (Homo sapiens, UniProt P51843); assay type: functional, cell-based;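 further: HEK293T cells transfected with SF-1 and DAX-1 plus StAR promoter luciferase reporter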
T4 sequence (P51843 whole entry): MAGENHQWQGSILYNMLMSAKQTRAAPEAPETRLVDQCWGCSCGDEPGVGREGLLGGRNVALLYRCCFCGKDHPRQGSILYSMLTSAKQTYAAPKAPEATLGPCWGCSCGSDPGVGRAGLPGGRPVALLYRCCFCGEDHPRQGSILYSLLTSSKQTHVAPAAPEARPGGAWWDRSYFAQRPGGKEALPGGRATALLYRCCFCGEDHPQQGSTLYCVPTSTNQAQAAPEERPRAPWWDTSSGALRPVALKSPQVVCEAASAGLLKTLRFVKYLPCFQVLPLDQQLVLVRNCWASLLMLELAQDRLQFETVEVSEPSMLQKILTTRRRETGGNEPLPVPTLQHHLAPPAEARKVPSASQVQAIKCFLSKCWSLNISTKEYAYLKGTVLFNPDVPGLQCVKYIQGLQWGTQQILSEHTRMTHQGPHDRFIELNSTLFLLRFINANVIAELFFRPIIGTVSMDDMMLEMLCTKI

[14] = NIH-3T3 fibroblast cytotoxicity, dose response, cytotoxicity control, cell-based, fluorescence, Alamar Blue, secondary assay (AID 2327); assay type: functional;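 further: NIH-3T3 mouse fibroblasts cultured with fluconazole at 8 µg/mL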
[15] = cytotoxicity toward NIH3T3 fibroblasts, dose response, counter-screen, cell-based, ATP luminescence, mouse fibroblasts (AID 2010); assay type: functional;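 further: cells exposed to compound for about 90 hours before reading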
[16] = target: T5, Rac GTPase-activating protein 1 (Homo sapiens, UniProt Q9H0H5); test: MgcRacGAP GTPase-activating activity inhibitors, confirmation, biochemical, ADP Hunter fluorescence, primary and confirmatory (AID 624330); assay type: functional
T5 sequence (Q9H0H5 whole entry): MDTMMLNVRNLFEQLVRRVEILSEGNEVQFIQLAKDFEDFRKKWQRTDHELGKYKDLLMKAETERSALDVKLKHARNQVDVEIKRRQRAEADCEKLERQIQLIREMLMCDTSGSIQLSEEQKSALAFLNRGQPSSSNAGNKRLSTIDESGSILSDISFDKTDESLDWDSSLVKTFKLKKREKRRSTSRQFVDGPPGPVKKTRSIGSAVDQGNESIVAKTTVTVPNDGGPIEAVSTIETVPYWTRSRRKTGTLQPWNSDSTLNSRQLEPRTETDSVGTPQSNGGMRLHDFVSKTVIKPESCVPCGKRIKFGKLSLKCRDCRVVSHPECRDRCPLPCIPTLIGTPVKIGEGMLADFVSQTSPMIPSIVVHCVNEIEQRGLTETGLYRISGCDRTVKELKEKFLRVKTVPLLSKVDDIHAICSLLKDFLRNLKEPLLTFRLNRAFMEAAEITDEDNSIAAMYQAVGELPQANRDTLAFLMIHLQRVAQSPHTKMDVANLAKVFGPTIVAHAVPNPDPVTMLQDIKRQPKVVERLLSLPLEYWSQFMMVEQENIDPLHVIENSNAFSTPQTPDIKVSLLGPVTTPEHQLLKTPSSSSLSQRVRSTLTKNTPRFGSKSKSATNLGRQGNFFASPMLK

[17] = Fluorescence-based cell-based high throughput dose response assay for inhibitors of the interaction of nucleotide-binding oligomerization domain containing 2 (NOD2) and the receptor-interacting serine-threonine kinase 2 (RIPK2).; assay type: functional; conditions: Homo sapiens
[18] = HeLa cell cytotoxicity, dose response, cytotoxicity control for MgcRacGAP inhibitor project (AID 624300); assay type: functional
[19] = target: Induced myeloid leukemia cell differentiation protein Mcl-1 (Homo sapiens, UniProt Q07820); assay type: functional
[20] = target: T6, Probable nicotinate-nucleotide adenylyltransferase (Staphylococcus aureus (strain N315), UniProt P65502); assay type: functional, Staphylococcus aureus subsp. aureus N315; conditions: read-out: IC50_Mean;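 on IC50 Mean: confirmatory dose-response retesting of NadD inhibitor hits first found in an ultra-high-throughput screen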
T6 sequence (P65502 whole entry): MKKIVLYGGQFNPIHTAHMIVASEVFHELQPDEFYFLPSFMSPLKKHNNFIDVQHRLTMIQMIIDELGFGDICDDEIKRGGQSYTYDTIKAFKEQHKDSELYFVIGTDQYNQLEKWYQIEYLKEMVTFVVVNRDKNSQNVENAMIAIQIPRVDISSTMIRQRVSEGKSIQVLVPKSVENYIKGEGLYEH

[21] = target: T6, Probable nicotinate-nucleotide adenylyltransferase; assay type: functional, Staphylococcus aureus subsp. aureus N315
H9c2 = test: cells; assay type: functional, cell-based; conditions: Rattus norvegicus, H9c2, Myocardium;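 further: confirmatory concentration-response retest of ultra-high-throughput screening hits for modulation of myocardial damage; cell death induced by hydrogen peroxide oxidative stress; compound pretreatment for 60 min then peroxide exposure for 2 h; potency is for protecting the cells against peroxide damage rather than for killing them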
[22] = AlphaScreen signal interference compounds, dose response, artefact control for ARNT-TACC3 interaction inhibitor project, biochemical, luminescence, cherry-pick (AID 651705); assay type: functional;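 further: AlphaScreen bead proximity signal that flags compounds interfering with the detection technology; potency reflects signal decrease which marks the compound as an assay artifact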
Protein Wnt-3a = Protein Wnt-3a (Mus musculus, UniProt P27467); test: Wnt3a-driven reporter signaling inhibition, dose response, selectivity assay for Gli-SUFU antagonist project, Wnt-LIGHT cells, luminescence (AID 651570); assay type: functional; conditions: read-out: IC50_Mean;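 further: Wnt-LIGHT reporter cells stimulated with conditioned medium from Wnt3a-producing cells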
[23] = target: T7, Short transient receptor potential channel 4 (Mus musculus, UniProt Q9QUQ5); test: mouse TRPC4 channel inhibitors, dose response, cell-based, HEK293 TRPC4/mu-opioid, Fluo-4 calcium (AID 434942); assay type: functional;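 further: potency of inhibitors blocking the TRPC4 calcium response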
T7 sequence (Q9QUQ5 whole entry): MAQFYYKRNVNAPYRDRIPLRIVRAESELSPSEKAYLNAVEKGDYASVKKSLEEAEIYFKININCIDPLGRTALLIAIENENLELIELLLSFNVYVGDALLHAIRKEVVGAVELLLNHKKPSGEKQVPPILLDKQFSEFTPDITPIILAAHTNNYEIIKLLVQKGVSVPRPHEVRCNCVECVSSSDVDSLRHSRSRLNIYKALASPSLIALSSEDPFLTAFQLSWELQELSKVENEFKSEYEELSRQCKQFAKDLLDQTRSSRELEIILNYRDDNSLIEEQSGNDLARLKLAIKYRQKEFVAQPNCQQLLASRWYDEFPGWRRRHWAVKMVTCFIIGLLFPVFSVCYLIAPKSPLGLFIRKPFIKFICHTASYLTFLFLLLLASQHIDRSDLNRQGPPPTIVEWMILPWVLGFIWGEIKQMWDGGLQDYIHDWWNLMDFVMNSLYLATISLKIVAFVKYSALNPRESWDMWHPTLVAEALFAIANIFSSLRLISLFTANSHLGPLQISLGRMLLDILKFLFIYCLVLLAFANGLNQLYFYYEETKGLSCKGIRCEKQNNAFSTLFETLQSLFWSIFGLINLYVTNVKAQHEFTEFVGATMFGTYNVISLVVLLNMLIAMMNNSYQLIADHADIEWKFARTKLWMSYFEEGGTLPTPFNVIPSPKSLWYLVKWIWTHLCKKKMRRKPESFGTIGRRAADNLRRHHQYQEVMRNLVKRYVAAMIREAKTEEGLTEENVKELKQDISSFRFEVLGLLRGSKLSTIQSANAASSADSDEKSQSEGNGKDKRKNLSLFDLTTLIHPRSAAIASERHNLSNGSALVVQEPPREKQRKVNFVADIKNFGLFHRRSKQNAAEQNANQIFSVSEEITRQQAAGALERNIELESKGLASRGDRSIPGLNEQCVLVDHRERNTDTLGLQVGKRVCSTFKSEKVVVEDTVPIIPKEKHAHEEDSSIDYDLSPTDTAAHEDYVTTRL

cells [24] = assay type: functional, cell-based; conditions: HEK-CNG
[25] = target: T8, COUP transcription factor 2 (Homo sapiens, UniProt P24468); test: Luminescence-based cell-based high throughput dose response assay to identify inhibitors of COUP-TFII (NR2F2).; assay type: functional;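 further: HEK293 cells transiently cotransfected with COUP-TFII expression vector and reporter; luciferase reporter luminescence driven by COUP-TFII from the pX2-168 reporter plasmid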
T8 sequence (P24468 whole entry): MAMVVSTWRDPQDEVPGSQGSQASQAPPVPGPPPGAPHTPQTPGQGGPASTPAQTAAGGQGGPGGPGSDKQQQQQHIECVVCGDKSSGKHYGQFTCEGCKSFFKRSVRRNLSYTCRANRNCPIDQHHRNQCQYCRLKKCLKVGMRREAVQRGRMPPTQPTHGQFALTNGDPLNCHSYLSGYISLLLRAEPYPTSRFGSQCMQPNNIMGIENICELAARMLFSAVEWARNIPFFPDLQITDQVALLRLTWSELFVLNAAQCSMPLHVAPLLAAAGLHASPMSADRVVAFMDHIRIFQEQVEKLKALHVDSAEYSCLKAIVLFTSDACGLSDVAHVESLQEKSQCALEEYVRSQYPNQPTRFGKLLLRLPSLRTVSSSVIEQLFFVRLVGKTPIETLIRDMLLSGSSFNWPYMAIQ

Galanin receptor type 3 = target: T9, Galanin receptor type 3 (Homo sapiens, UniProt O60755); test: Fluorescence-based cell-based primary high throughput dose response assay to identify antagonists of the Galanin Receptor 3 (GalR3).; assay type: functional
T9 sequence (O60755 whole entry): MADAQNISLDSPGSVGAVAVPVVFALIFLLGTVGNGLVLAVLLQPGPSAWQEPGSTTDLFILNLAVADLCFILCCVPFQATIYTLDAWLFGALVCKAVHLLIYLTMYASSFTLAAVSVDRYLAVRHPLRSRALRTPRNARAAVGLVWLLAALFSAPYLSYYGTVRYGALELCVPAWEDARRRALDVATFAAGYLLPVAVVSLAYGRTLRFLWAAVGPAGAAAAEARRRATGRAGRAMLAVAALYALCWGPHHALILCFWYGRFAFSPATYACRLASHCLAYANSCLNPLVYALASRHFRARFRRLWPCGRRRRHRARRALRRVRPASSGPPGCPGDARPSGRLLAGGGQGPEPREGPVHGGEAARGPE

INS1 = test: beta cell apoptosis inhibitors, cytokine rescue, dose response, luminescence, retest (AID 449756); assay type: functional, cell-based; conditions: Rattus norvegicus;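 further: cell death triggered by IL-1 beta plus TNF-alpha plus IFN-gamma mixture; protective hits raise ATP signal compared with cytokine alone wells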
[26] = target: DNA repair and recombination protein RAD54-like (Homo sapiens, UniProt Q92698); test: inhibitors of human RAD54 branch migration, confirmation, biochemical, fluorescence, cherry-picked samples, dose series (AID 651657); assay type: functional
Chain of DNA repair and recombination protein RAD54-like (Q92698 whole entry): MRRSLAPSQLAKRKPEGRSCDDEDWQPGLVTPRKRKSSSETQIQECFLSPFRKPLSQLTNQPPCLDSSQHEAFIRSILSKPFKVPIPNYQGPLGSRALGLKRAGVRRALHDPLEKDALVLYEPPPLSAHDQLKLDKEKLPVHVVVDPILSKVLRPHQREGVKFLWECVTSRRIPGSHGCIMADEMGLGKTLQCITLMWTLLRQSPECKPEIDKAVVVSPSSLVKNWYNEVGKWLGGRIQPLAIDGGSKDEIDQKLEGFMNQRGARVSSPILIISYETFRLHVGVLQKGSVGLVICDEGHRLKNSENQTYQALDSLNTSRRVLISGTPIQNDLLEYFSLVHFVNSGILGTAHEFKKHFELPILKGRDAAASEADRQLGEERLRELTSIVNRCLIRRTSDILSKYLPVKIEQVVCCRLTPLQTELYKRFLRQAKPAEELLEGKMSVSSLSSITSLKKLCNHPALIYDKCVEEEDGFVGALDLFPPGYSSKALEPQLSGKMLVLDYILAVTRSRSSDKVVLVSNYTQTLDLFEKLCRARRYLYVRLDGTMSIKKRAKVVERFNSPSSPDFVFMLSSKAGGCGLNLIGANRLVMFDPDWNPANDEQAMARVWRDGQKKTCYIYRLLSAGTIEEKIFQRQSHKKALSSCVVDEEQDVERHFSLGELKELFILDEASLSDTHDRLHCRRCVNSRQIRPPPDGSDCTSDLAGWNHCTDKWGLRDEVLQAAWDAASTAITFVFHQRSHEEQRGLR

[27] = target: Dual specificity tyrosine-phosphorylation-regulated kinase 1A (Rattus norvegicus, UniProt Q63470); assay type: biochemical, Homo sapiens

Chain of Fructose-bisphosphate aldolase (P9WQA3 whole entry, the tested form may be a part): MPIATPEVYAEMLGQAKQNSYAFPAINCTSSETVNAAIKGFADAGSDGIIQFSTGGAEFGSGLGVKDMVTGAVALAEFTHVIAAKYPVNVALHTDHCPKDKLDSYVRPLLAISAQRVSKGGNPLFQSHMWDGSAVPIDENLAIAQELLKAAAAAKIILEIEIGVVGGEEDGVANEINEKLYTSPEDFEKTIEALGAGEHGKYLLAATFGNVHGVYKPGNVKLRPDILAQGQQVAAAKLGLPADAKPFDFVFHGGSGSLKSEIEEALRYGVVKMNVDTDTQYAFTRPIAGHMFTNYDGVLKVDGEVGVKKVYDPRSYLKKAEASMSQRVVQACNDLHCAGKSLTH

Cc1ccc(-n2nc3ccc(N)cc3n2)cc1C
IC50 [1]: 0.895 µM (active)

Cn1c(/C=N/n2cnnc2)nc2ccccc21
IC50 [1]: 1.54 µM (active)

COc1ccc2cc3c(N)nn(C(=O)c4cccc([N+](=O)[O-])c4)c3nc2c1
IC50 [2]: 4.35 µM (active) | IC50 [3]: > 50 µM (inactive) | AC50 (HEK293 [4]): 3.08 µM (active) | IC50 [5]: 12.2 µM (active) | IC50 [6]: 19.1 µM (active)

COc1cc2c(O)c3c(c(-c4ccc5c(c4)OCO5)c2cc1OC)C(=O)OC3 [DIPHYLLIN]
IC50 [7]: 0.962 µM (active) | IC50 (cells [8]): > 67.6 µM (inactive) | EC50 [9]: 2.59 µM (active) | EC50 [10]: 1.65 µM (active) | EC50 (HEK293 [11]): > 59.7 µM (inactive) | EC50 (HEK293 [12]): > 59.7 µM (inactive) | IC50 [13]: > 67.6 µM (inactive) | EC50 [14]: 33.5 µM (active) | EC50 [15]: > 30 µM (not active)

CN(C)CCC(=O)N1C/C(=C/c2ccccc2)C(=O)/C(=C\c2ccccc2)C1
IC50 [16]: 167 µM (active) | IC50 [17]: 3.78 µM (active) | CC50 [18]: 25 µM (active)

CC(C)(C)c1ccc(CSc2nc(N)cc(O)n2)cc1
IC50 [7]: 5.21 µM (active)

C/C(=N\NC(=O)c1cccc(N/N=C(\C)c2ccco2)c1)c1ccco1
IC50 [2]: 3.17 µM (active) | IC50 [19]: 3.19 µM (active) | IC50 [20]: 14.8 µM (active) | IC50 [21]: 10.6 µM (active)

Cc1ccccc1C(=O)Nc1cc[n+](-c2nc3ccccc3nc2[N-]S(=O)(=O)c2ccc(F)cc2)cc1
IC50 [20]: 23.8 µM (active) | IC50 [21]: 5.96 µM (active)

CSCC[C@H](NC(=O)OC(C)(C)C)C(=O)N/N=C/c1cccc2cccnc12
IC50 (H9c2): > 79 µM (inactive) | AC50 [22]: 132 µM (active)

O=C(NCCCn1ccnc1)C(=O)NCC1OCCN1S(=O)(=O)c1ccc2c(c1)OCCO2 (stereo not drawn)
AC50 [22]: 89.6 µM (active)

Cc1nc2ccccc2n1Cc1ccc(Br)cc1
IC50 (Protein Wnt-3a): 0.369 µM (active) | EC50 [23]: 0.668 µM (active) | EC50 (cells [24]): > 29.9 µM (inactive) | IC50 [25]: 4.4 µM (active) | IC50 (Galanin receptor type 3): 0.14 µM (active) | AC50 (INS1): 2.84 µM (active)

Cc1[nH]ccc2c1[nH]c1cc(=O)ccc12 [HARMOL]
IC50 [16]: 44.9 µM (active) | AC50 [26]: 23.9 µM (active) | AC50 [27]: 0.298 µM (active)

Source: ChEMBL document CHEMBL1201862, “PubChem BioAssay data set” (2004)
